{"source": "paper PMC2234480", "about": "(The Journal of General Physiology, 2003)", "origin": "cited, not measured here", "system": "CLC-0", "settings": "ref Pusch et al., 2001"}
{"smiles": "CCC(Oc1ccc(Cl)cc1)C(=O)O", "note": "(centres unmarked) [CPB, p-chlorophenoxy-butyric acid]", "values": [{"measurement": "relief of block at positive voltages", "setting": "5 mM CPB, V > 40 mV", "value": "complete unblock"}, {"measurement": "affinity for closed channels", "setting": "model from macroscopic and single-channel analysis", "value": "submillimolar affinity"}]}
